Where two headings read alike, the source gives them in different places.
Columns and labels:
B lymphoma (BKS-2) = details: mouse, in vivo; cited from earlier work
[1] = tested on: B-Cell non-Hodgkin's lymphoma (NHL); details: cited from earlier work
hERG = molecular target: T1, hERG (Homo sapiens, UniProt Q12809); test: Cy3B Dofetilide Fluoro-Ligand Binding Assay for hERG; details: membranes of CHO-K1 cells that express hERG, pH 7.4, probe Cy3b-Dofetilide fluoro-ligand, 1.0 nM, hERG-expressing CHO-K1 membranes
T1 construct: expressed in transfected cells; host or cells: CHO-K1 cells stably expressing human hERG; membrane fraction
T1 sequence (Q12809 whole entry): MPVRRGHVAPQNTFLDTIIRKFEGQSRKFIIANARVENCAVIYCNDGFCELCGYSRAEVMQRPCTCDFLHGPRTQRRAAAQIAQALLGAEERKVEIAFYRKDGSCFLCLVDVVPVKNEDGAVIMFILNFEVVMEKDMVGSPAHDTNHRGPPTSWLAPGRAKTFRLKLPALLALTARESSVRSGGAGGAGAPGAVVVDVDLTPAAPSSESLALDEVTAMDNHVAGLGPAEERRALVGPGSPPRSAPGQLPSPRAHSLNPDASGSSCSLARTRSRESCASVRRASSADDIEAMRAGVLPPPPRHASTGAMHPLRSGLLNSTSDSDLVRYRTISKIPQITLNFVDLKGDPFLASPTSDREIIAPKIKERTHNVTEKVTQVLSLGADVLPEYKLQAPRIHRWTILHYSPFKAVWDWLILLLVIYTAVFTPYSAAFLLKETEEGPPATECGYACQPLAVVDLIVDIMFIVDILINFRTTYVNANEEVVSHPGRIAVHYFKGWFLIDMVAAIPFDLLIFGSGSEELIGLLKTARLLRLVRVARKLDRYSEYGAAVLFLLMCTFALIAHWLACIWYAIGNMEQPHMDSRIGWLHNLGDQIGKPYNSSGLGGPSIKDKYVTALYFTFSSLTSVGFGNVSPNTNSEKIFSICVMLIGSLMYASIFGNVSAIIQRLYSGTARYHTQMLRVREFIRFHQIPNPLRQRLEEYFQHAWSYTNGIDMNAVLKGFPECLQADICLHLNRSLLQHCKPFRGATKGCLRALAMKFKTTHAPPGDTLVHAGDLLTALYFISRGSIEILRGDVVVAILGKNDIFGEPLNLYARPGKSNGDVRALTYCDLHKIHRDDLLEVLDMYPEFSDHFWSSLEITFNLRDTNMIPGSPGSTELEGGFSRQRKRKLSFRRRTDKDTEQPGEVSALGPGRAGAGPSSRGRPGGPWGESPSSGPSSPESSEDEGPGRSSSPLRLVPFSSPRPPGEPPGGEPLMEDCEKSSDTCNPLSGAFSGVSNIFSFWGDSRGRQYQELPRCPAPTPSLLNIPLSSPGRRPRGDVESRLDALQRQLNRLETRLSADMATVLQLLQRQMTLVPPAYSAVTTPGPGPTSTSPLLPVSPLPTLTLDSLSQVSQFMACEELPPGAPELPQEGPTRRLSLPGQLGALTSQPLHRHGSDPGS
Procedure: Compound potencies were determined by a fluoro-ligand^§ (Cy3b-Dofetilide) fluorescence polarisation assay.
hERG-expressing CHO-K1 membranes* (60 μg/ml) were incubated with 1.0 nM fluoro-ligand^§, in assay buffer (25 mM HEPES, 1.2 mM MgCl2, 100 mM KCl and 0.1% pluronic, pH adjusted to 7.4 using 5M KOH). The final potassium concentration in the assay was 100 mM. After 70 min mixing at room temperature, in the dark, 10 μl was dispensed into each well of a black LV Greiner 384-well plate containing 0.1 μl of test compound in DMSO. The plates were left to equilibrate for 2 h before reading on an Acquest™/Analyst™ imager. pIC50 data were generated using from an 11-point inhibition curve (top assay concentration of 50 μM and a 1:3 step-dilution), a […] curve-fit being applied using ABase and XC50 to analyse data and generate curve fits.
Chinese Hamster Ovary (CHO) cells stably expressing the human hERG receptor were grown to 80% confluency before being harvested by trypsinisation and subsequent centrifugation at 500 g for 10 min. Cell pellets were frozen at −80 C before membrane production. The frozen pellet was thawed on ice, re-suspended and homogenised in 10 volumes of membrane buffer (50 mM HEPES, pH 7.4, 1 mM EDTA, 1 mM PMSF, 2×10^-6M Pepstatin A). The membrane suspension was centrifuged for 20 min at 500 g, the pellet discarded and the supernatent spun again at 48,000 g for 30 min. Following the second centrifugation the remaining pellet containing the membrane fraction was re-suspended in an appropriate volume (4 ml for each ml of frozen cell pellet) and assayed for protein concentration.

Whole blood B cells = test: CD69 Whole Blood Assay; type: cell-based; details: Homo sapiens, B-cell, anti-IgM stimulated
Procedure: Whole blood B cells are stimulated ex-vivo using anti-IgM. […] The subsequent autophosphorylation of Syk leads to initiation of a signalling cascade resulting in B cell activation as indicated by expression of the activation marker CD69 on the cell surface. CD20/CD69+ve whole blood B cells are detected by flow cytometry.
100 μl heparinised human blood was added to a 5 ml polypropylene tube containing 1 μl appropriately diluted compound solution and incubated for 25 min at 37° C. with 5% CO2. B cells were stimulated with 10 μl Fab′2 fragments of goat anti-human IgM (43 μg/ml final concentration) for a further 3.5 h under the conditions previously described. The red blood cells were lysed and all other cells fixed by the addition of 2 ml Lyse/Fix buffer for 10 min at room temperature.
The cells were stained using a cocktail of mouse anti-human CD20 FITC and mouse anti-human CD69 PE conjugated antibodies. CD20/CD69+ve B cells present in the sample were detected by flow cytometry.
Compound was prepared as a 10 mM stock in DMSO, further diluted down in DMSO to 1 mM and a dilution series prepared in DMSO using 7 successive 3-fold dilutions to give the final concentration range to be tested of 1×10^−5 to 4.57×10^−9M. Compound dilutions were prepared using the Biomek 2000 automated robotic pipetting system.

SYK lysate = molecular target: T2, SYK lysate (Homo sapiens, UniProt P43405); test: Basic Syk Enzyme Activity; type: biochemical; details: read-out: average pIC50 (converted)
T2 construct: Stimulation of Ramos Cells with Anti-IgM Ab to Produce Syk & Preparation of Lysates; endogenous in cells; host or cells: Ramos B cells (human Burkitt's lymphoma, clone 296.4C10, ATCC), stimulated with anti-IgM and lysed in 1% Triton X-100
Procedure: 3 μl of SYK lysate diluted 16-fold in assay buffer (20 mM TRIS pH 7.4, 0.01% BSA, 0.1% Pluronic F-68) was added to wells containing 0.1 μl of various concentrations of compound or DMSO vehicle (1.7% final) in a Greiner low volume 384 well black plate. Following 15 min pre-incubation at room temperature, the reaction was initiated by the addition of 3 μl of substrate reagent containing Y7 Sox peptide, (Invitrogen Cat. # KNZ3071, 5 μM final), ATP (35 μM final) and MgCl2 (10 mM final) in assay buffer. The reaction was incubated at room temperature before measuring fluorescence intensity (λex 360/λem 485) on an Envision plate reader (Perkin Elmer Life Sciences, Waltham, Mass., USA) at 15 min and 55 min post-substrate addition.
Ramos B Cells (human B cells of Burkitt's lymphoma, clone 296.4C10, ATCC) were cultured in suspension in growth medium (RPMI-1640, Sigma; supplemented with 2 mM L-glutamine, Gibco; 10 mM Hepes, Sigma; 1 mM sodium pyruvate, Sigma; 10% v/v heat-inactivated FCS, Gibco). Cells were grown in Corning Cellstacks (6360 cm^2) in 1 liter volume and viability and cell density were monitored daily. Cells were maintained at <1.5×10e6/ml and >92% viability.
Cells were stimulated at 20×10^6 cells/ml using 15 ug/ml (final concentration) anti-IgM antibody. Following harvest (as described above), a total of 4×10^9 cells were resuspended in 180 ml pre-warmed (37° C.) DPBS in a Corning 500 ml centrifuge bottle. 20 ml anti-IgM antibody at 150 ug/ml were added to each 500 ml centrifuge bottle (working stock made up in DPBS pre-warmed to 37° C.). Cells were incubated for exactly 5 min at 37° C. following the addition of anti IgM antibody. Following 5 min stimulation, 300 ml ice-cold DPBS were added to each bottle to stop the stimulation (temperature drops to ˜12° C.) then cells were centrifuged at 2000 rpm (Sorvall Legend RT+ centrifuge—pre-chilled to 4° C.). Cells were washed by resuspension in ice-cold DPBS and centrifugation as above. The cell pellet was then lysed in ice-cold lysis buffer containing 1% triton-x-100 at a ratio of 150 ul/1×10^7 cells (i.e. 48 ml lysis buffer). Following the addition of lysis buffer, the cells were pipetted up & down & kept on ice for 15 min. The clarified lysate was then obtained by centrifugation (Sorvall Evolution RC (SLA-1500 rotor, ˜20,000 g (˜14,500 rpm), 45 min, 4° C.).
Lysate was aliquoted, snap-frozen on dry-ice & stored at −80° C. prior to assay.
Lysis Buffer: 50 mM TRIS pH7.5+150 mM NaCl+1% Triton-X-100+2 mM EGTA+1:100 dilution inhibitor cocktails (phosphatase inhibitor cocktail set II, calbiochem cat no. 524625 & protease inhibitor cocktail set V, calbiochem cat no. 539137)

allergic rhinitis [2] = details: intranasal, phase I/II; cited from earlier work
allergic rhinitis [3] = details: phase II; cited from earlier work
[4] = hydrochloric acid salts, read-out: average IC50
[5] = hydrochloric acid salts, read-out: average pIC50 (converted)
[6] = as the free base, read-out: average IC50
[7] = form not stated (first list), read-out: average pIC50 (converted)
[8] = as the free base, read-out: average pIC50 (converted)

Row | SMILES | IC50 at 2 h (hERG; [6]) [µM] | IC50 at 2 h (hERG; [7]) [µM] | IC50 (Whole blood B cells; [8]) [nM] | IC50 (SYK lysate; as the free base) [nM] | IC50 (Whole blood B cells; [6]) [nM] | further results
1 | COc1cc(/C=C/C(=O)CC(=O)/C=C/c2ccc(O)c(OC)c2)ccc1O [curcumin] |  |  |  |  |  | tumour burden as measured by the total splenocyte number (B lymphoma (BKS-2)): significant reduction
2 | COc1cc(Nc2ncc(F)c(Nc3ccc4c(n3)N(COP(=O)(O)O)C(=O)C(C)(C)O4)n2)cc(OC)c1OC [Example R788, fostamatinib disodium] |  |  |  |  |  | therapeutic benefit ([1]; patients with DLBCL and CLL/SLL): therapeutic benefit; tolerability ([1]; patients with relapsed or refractory B-Cell NHL): well-tolerated
3 | OCCn1cc(-c2cc3ncccc3c(NC[C@]3(F)CCCNC3)n2)cn1 [Example 6, 2-{4-[5-({[(3S)-3-fluoro-3-piperidinyl]methyl}amino)-1,6-naphthyridin-7-yl]-1H-pyrazol-1-yl}ethanol] |  |  |  |  |  | IC50 at 2 h (hERG; [4]): > 20 µM; IC50 at 2 h (hERG; [5]): > 10 µM; IC50 (Whole blood B cells; [4]): < 1000 nM; IC50 (Whole blood B cells; [5]): ≤ 1000 nM; IC50 (SYK lysate; hydrochloric acid salts): ≤ 316 nM
4 | CC(C)(O)Cn1cc(-c2cc3ncccc3c(NC[C@]3(F)CCCNC3)n2)cn1 [Example 5, 1-{4-[5-({[(3S)-3-fluoro-3-piperidinyl]methyl}amino)-1,6-naphthyridin-7-yl]-1H-pyrazol-1-yl}-2-methyl-2-propanol] | > 10 | > 10 | ≤ 1000 | ≤ 100 |  | 
5 | FC1(CNc2nc(-c3cnn(C4CCCC4)c3)cc3ncccc23)CCCNC1 (racemic) [Example 8, 7-(1-cyclopentyl-1H-pyrazol-4-yl)-N-[(3-fluoro-3-piperidinyl)methyl]-1,6-naphthyridin-5-amine] | > 10 | > 10 | ≤ 1000 | ≤ 100 | < 1000 | 
6 | FC1(CNc2nc(-c3cnn(Cc4ccccc4)c3)cc3ncccc23)CCCNC1 (racemic) [Example 10, N-[(3-fluoro-3-piperidinyl)methyl]-7-[1-(phenylmethyl)-1H-pyrazol-4-yl]-1,6-naphthyridin-5-amine] | > 10 | > 10 | ≤ 1000 | ≤ 100 | < 1000 | 
7 | FC(F)(F)Cn1cc(-c2cc3ncccc3c(NCC3(F)CCCNC3)n2)cn1 (single isomer, unassigned) [Example 9A, N-{[3-fluoro-3-piperidinyl]methyl}-7-[1-(2,2,2-trifluoroethyl)-1H-pyrazol-4-yl]-1,6-naphthyridin-5-amine] | > 10 | > 10 | ≤ 1000 | ≤ 100 | < 1000 | 
8 | Oc1cccc(Nc2ncc(F)c(Nc3cccc(O)c3)n2)c1 [Example R112] |  |  |  |  |  | PGD2 (allergic rhinitis [2]): statistically significant decrease; clinical safety (allergic rhinitis [2]): safe across a range of indicators; efficacy versus placebo (allergic rhinitis [3]): lack of efficacy
9 | CC(C)n1cc(-c2cc3ncccc3c(NCC3(F)CCCNC3)n2)cn1 (single isomer, unassigned) [Example 11A, N-{[3-fluoro-3-piperidinyl]methyl}-7-[1-(1-methylethyl)-1H-pyrazol-4-yl]-1,6-naphthyridin-5-amine] | > 10 | > 10 | ≤ 1000 | ≤ 100 | < 1000 | 
10 | COCCn1cc(-c2cc3ncccc3c(NC[C@]3(F)CCCNC3)n2)cn1 [Example 7, N-{[(3S)-3-fluoro-3-piperidinyl]methyl}-7-{1-[2-(methyloxy)ethyl]-1H-pyrazol-4-yl}-1,6-naphthyridin-5-amine] | > 10 | > 10 | ≤ 1000 | ≤ 100 | < 1000 | 

Source: US8633319B2, “7-(1H-pyrazol-4-yl)-1,6-naphthyridine compounds as Syk inhibitors” (Glaxo Group Limited, priority 2010, dated 2014)
